Source: patent US20150290333A1, “PROCESS AND MATERIALS FOR MEDICAL APPLICATIONS” (NATIONAL UNIVERSITY OF SINGAPORE, priority 2012, published 2015)

System: human mesenchymal stem cells
Assay: Pinocytosis inhibition studies
Assay type: cell-based
Conditions: PVP, Fc70, Fc400
Protocol: Cells were viewed with a FV300 laser scanning confocal microscope (Olympus, Japan). The excitation beam from a 543-nm HeNe ion laser (MellesGriot, Singapore) was focused by a water immersion objective (60×, NA1.2, Olympus) into the fluorescent sample. For organelle co-localization studies, an additional 488-nm Ar laser (MellesGriot, Singapore) was used to excite fluorescent organelle labels. Images were acquired with the Olympus FV300 software.
hMSCs (Lonza) were pre-incubated for 1 hour with 10 mM methyl beta cyclodextrin (MBCD, Sigma-Aldrich), 28 μM chlorpromazine (CPZ, Sigma-Aldrich), 300 μM amiloride (Am, Sigma-Aldrich), and 10 μM monensin (Mon, Sigma-Aldrich) in serum-free LGDMEM. The cells were then incubated for a further 1 hour with a mixture of each inhibitor and each TRITC-labelled polymer in serum-free LGDMEM.

Compound: N=C(N)NC(=O)c1nc(Cl)c(N)nc1N [Am, amiloride]
- Effect of pinocytosis inhibitor on uptake of TRITC-labelled polymers (300 μM inhibitor): no significant effects

Compound: CN(C)CCCN1c2ccccc2Sc2ccc(Cl)cc21 [CPZ, chlorpromazine]
- Effect of pinocytosis inhibitor on uptake of TRITC-labelled polymers (28 μM inhibitor): reduced polymer presence across the board, but trapped Fc in the worm-like compartments

Compound: CC[C@@]1([C@@H]2O[C@@H]([C@H]3O[C@@](O)(CO)[C@H](C)C[C@@H]3C)C[C@@H]2C)CC[C@H]([C@]2(C)CC[C@]3(C[C@H](O)[C@@H](C)[C@@H]([C@@H](C)[C@@H](OC)[C@H](C)C(=O)O)O3)O2)O1 [Monensin, monensin]
- Effect of pinocytosis inhibitor on uptake of TRITC-labelled polymers (10 μM inhibitor): did not inhibit uptake of polymers but arrested them in a seam of vesicles at the periphery of the cells

Compound: methyl-beta-cyclodextrin [MβCD]
- Effect of pinocytosis inhibitor on uptake of TRITC-labelled polymers (10 mM inhibitor): completely inhibited uptake of all polymers
